Common to all, as to conditions: treatment: drug alone; 5 days
Test [1] relates to CAKI-1. As to the kind of experiment: minimum viability across doses, drug alone, relative to DMSO (fraction); higher = less growth inhibition. How it is done:
(§1)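 Primary HTS: 8 RCC cell lines treated with 8 doses (up to 10 uM) of each library drug alone for 5 days; viability read by CellTiter-Glo and normalised to DMSO. GI50 was fitted with XLfit (4-parameter), AUC is the area under the dose-response curve, and minimum viability is the lowest fraction of DMSO viability across doses.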

The test system of test [2] is SN12C. Described as above. Here is the method:
as §1

Test [3] relates to TK-10. The test is described as above. How it is done:
as §1

Test [4] has as its system A498. The test is described as above. How it is done:
as §1

For test [5], the system named is 769-P. The test is described as above. Here is the method: as §1
For test [6], the system named is UO-31. Described as above. Here is the method: as §1
For test [7], the system named is ACHN. The test is described as above. Here is the method:
as §1

For test [8], the system named is 786-O. Described as above. Here is the method: as §1
Test [9] concerns CAKI-1. As to the kind of experiment: GI50, drug alone; higher = less potent. Here is the method: as §1
Test [10] relates to SN12C. Briefly: GI50, drug alone; higher = less potent. Here is the method:
as §1

The subject of test [11] is TK-10. As to the kind of experiment: GI50, drug alone; higher = less potent. Here is the method: as §1
The subject of test [12] is A498. As to the kind of experiment: GI50, drug alone; higher = less potent. Here is the method: as §1
In test [13] the test system is 769-P. As to the kind of experiment: GI50, drug alone; higher = less potent. Here is the method: as §1
The test system of test [14] is UO-31. Briefly: GI50, drug alone; higher = less potent. Here is the method: as §1
Test [15] relates to ACHN. Briefly: GI50, drug alone; higher = less potent. How it is done:
as §1

In test [16] the test system is 786-O. As to the kind of experiment: GI50, drug alone; higher = less potent. Here is the method:
as §1

The subject of test [17] is CAKI-1. As to the kind of experiment: AUC of dose-response viability curve, drug alone (arbitrary (AUC of normalised viability)); higher = less growth inhibition. How it is done: as §1
Test [18] deals with SN12C. The test is described as above. How it is done:
as §1

In test [19] the test system is TK-10. The description is as above. Here is the method:
as §1

Test [20] concerns A498. The test is described as above. Here is the method:
as §1

The test system of test [21] is 769-P. The description is as above. Here is the method: as §1
Test [22] concerns UO-31. The description is as above. How it is done:
as §1

The test system of test [23] is ACHN. The test is described as above. Here is the method: as §1
Test [24] relates to 786-O. Described as above. Here is the method: as §1

Take `COc1cc(N2CCC(N3CCN(C)CC3)CC2)ccc1Nc1ncc(Cl)c(Nc2ccccc2S(=O)(=O)C(C)C)n1` [TAE684 (NVP-TAE684)]: the “minimum viability across doses” value was 0.255 in the test on CAKI-1 [1]; 0.182 in the test with SN12C [2]; 0.356 in the test with TK-10 [3]; 0.399 in the test on A498 [4]; 0.722 with 769-P [5]; 0.927 in the test with UO-31 [6]. Besides, the entries for the “minimum viability across doses” value in the test on ACHN [7] and with 786-O [8] were 0.237 and 0.124, respectively. For the same compound, the “GI50, drug alone” value in the test with CAKI-1 [9] is 2330 nM; in the test with SN12C [10] it was 2620 nM; in the test with TK-10 [11] it was 3590 nM; with A498 [12], 1430 nM; in the test with 769-P [13], more than 10000 nM; in the test with UO-31 [14], more than 10000 nM. Also, the “GI50, drug alone” value with ACHN [15] is 1840 nM; in the test with 786-O [16], less than 3 nM. Besides, the “AUC of dose-response viability curve” value in the test with CAKI-1 [17] is 2.9; in the test with SN12C [18], 2.74; with TK-10 [19] it was 2.82; with A498 [20], 3.29; with 769-P [21], 3.21; with UO-31 [22], 4.34. The “AUC of dose-response viability curve” value in the test on ACHN [23] worked out at 2.65; in the test on 786-O [24], 1.87.

Consider `CC(C)(O)CC(=O)NCCn1ccc2ncnc(Nc3ccc(Oc4cccc(C(F)(F)F)c4)c(Cl)c3)c21` [TAK-285], for which the “minimum viability across doses” value in the test with CAKI-1 [1] turned out to be 0.584; in the test with SN12C [2], 0.81; in the test on TK-10 [3] it was 0.412; in the test with A498 [4] it was 0.852; in the test on 769-P [5], 0.407; in the test on UO-31 [6] it was 1.21. Further, the “minimum viability across doses” value in the test on ACHN [7] came out at 0.421; in the test on 786-O [8], 0.524. The “GI50, drug alone” value was more than 10000 nM with CAKI-1 [9]; more than 10000 nM in the test with SN12C [10]; 3950 nM in the test with TK-10 [11]; more than 10000 nM with A498 [12]; 6690 nM in the test with 769-P [13]; more than 10000 nM in the test on UO-31 [14]. Further, the “GI50, drug alone” value is 4120 nM with ACHN [15] and more than 10000 nM in the test with 786-O [16]. For the same compound, the “AUC of dose-response viability curve” value with CAKI-1 [17] was found to be 3.14; in the test with SN12C [18], 3.17; in the test on TK-10 [19], 2.5; in the test on A498 [20], 3.69; in the test on 769-P [21] it was 3.04; in the test on UO-31 [22], 4.9. In addition, the “AUC of dose-response viability curve” value came out at 2.78 in the test on ACHN [23] and 2.42 in the test on 786-O [24].

Take `Cn1c(=O)c(F)c(Nc2ccc(I)cc2F)c2c(=O)n(C[C@@H](O)CO)cnc21` [TAK-733]: the “minimum viability across doses” value is 0.17 in the test with CAKI-1 [1]; 0.26 in the test on SN12C [2]; 0.242 in the test on TK-10 [3]; 0.784 with A498 [4]; 0.293 in the test with 769-P [5]; 0.0861 with UO-31 [6]. Besides, the “minimum viability across doses” value in the test on ACHN [7] stood at 0.291; with 786-O [8] it was 0.396. Besides, the “GI50, drug alone” value is 95 nM in the test on CAKI-1 [9]; 758 nM in the test on SN12C [10]; 149 nM with TK-10 [11]; more than 10000 nM in the test with A498 [12]; 933 nM in the test on 769-P [13]; 2450 nM in the test on UO-31 [14]. Also, the “GI50, drug alone” value was found to be 209 nM in the test on ACHN [15] and 167 nM in the test on 786-O [16]. For the same compound, the “AUC of dose-response viability curve” value with CAKI-1 [17] was 1.57; with SN12C [18] it was 2.08; with TK-10 [19], 1.72; in the test with A498 [20], 3.42; with 769-P [21], 2.33; with UO-31 [22], 3.49. Also, the figures for the “AUC of dose-response viability curve” value with ACHN [23] and in the test on 786-O [24] were 1.8 and 2.08, respectively.

`CCS(=O)(=O)c1cccc(-c2cc(C(=O)NC3CCN(C)CC3)c(C)c3[nH]c4ncc(C)cc4c23)c1` [TAK-901]: the “minimum viability across doses” value in the test on CAKI-1 [1] was determined as 0.0277; in the test on SN12C [2], 0.00544; in the test with TK-10 [3], 0.0432; in the test with A498 [4], 0.0141; in the test on 769-P [5], 0.521; with UO-31 [6] it was 0.21. Besides, the “minimum viability across doses” value with ACHN [7] was determined as 0.0394; in the test with 786-O [8], 0.00628. Besides, the “GI50, drug alone” value is 1320 nM in the test with CAKI-1 [9]; 383 nM with SN12C [10]; 836 nM with TK-10 [11]; 956 nM in the test with A498 [12]; more than 10000 nM with 769-P [13]; 8940 nM with UO-31 [14]. The “GI50, drug alone” value in the test on ACHN [15] is 708 nM; in the test with 786-O [16], 381 nM. Further, the “AUC of dose-response viability curve” value in the test with CAKI-1 [17] is 2.65; in the test on SN12C [18], 1.98; in the test with TK-10 [19], 2.27; in the test with A498 [20] it was 3.09; in the test with 769-P [21], 3.25; in the test on UO-31 [22], 4.08. The “AUC of dose-response viability curve” value in the test with ACHN [23] was 2.33; in the test on 786-O [24] it was 1.81.

For the origin of these results see the supplement of paper PMC8149375.
